Assay results from US8772500B2, “TRPV3 modulators” (AbbVie Inc., priority 2011, dated 2014).
pIC50: −log10 of the molar value.

Key:
[1] = In vitro rat microsomal stability assay; type: in vitro ADME, rat (Sprague-Dawley)
Method in brief: (§1)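 Metabolic stability is assessed by incubating test compound with liver microsomes at 37 °C in the presence of NADPH. Rat assays use Sprague-Dawley microsomes, while human assays use human microsomes.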

human TRPV3 = biological target: T1, human TRPV3 (Homo sapiens, UniProt Q8NET8); experiment: In vitro antagonism of recombinant human TRPV3 activation (FLIPR Tetra calcium assay, 2-APB as agonist); type: cell-based; details: HEK293 cells stably expressing human TRPV3; 2-APB 80 μM; range class; read-out: IC50 (reported range)
T1 construct: expressed in transfected cells
T1 sequence (Q8NET8 1-790): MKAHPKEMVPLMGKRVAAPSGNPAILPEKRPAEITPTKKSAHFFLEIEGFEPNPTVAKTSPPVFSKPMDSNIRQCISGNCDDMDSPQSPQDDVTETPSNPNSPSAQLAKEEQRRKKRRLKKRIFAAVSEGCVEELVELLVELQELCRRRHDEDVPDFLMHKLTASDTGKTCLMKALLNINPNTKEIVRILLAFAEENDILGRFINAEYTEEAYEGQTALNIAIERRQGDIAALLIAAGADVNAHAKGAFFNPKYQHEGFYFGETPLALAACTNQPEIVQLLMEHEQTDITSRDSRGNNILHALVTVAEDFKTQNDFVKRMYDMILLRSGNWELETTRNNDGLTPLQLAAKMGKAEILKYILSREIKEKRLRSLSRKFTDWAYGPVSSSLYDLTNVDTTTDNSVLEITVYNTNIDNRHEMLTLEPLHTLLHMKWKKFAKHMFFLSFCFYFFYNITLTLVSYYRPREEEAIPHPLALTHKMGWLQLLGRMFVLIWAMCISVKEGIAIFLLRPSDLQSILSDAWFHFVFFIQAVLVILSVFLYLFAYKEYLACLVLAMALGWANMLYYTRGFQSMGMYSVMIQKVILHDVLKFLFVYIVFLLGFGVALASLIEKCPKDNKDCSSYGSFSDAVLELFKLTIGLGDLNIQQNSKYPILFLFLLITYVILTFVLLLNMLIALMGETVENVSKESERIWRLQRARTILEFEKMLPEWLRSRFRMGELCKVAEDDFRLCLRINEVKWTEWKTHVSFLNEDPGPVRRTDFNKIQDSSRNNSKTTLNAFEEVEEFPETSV
Method in brief: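 Readout is FLIPR fluorescence, max minus min as percent of uninhibited 2-APB response, giving IC50 (usually mean of ≥2 runs). Stable human TRPV3 HEK293 cells, Calcium-4 dye-loaded, got test compound then, three minutes later, 80 μM 2-APB (EC80); run length 10 min.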

[2] = In vitro human microsomal stability assay; type: in vitro ADME
Method in brief: as §1

[3] = Sprague-Dawley, rat, 0.5 h, 0.5 μM, pH 7.4
[4] = 0.5 μM substrate, 0.25 mg/mL microsomal protein, pH 7.4, 37° C., NADPH, 30 minutes

Row | SMILES | RAT MICROSOMAL STABILITY (% REMAINING AFTER 30 MINUTES) [1, 3] | pIC50 (human TRPV3) | HUMAN MICROSOMAL STABILITY (% REMAINING AFTER 30 MINUTES) ([2]; human, 0.5 h, 0.5 μM, pH 7.4) | RAT […] (% REMAINING AFTER 30 MINUTES) [1, 4] | HUMAN […] (% REMAINING AFTER 30 MINUTES) [2, 4] | RAT MICROSOMAL STABILITY (% REMAINING AFTER 30 MINUTES) [1, 4] | HUMAN MICROSOMAL STABILITY (% REMAINING AFTER 30 MINUTES) [2, 4]
1 | O[C@H](c1ccccn1)C1(c2ccc(C(F)(F)F)cc2)CCC1 [Example 28, (S)-pyridin-2-yl{1-[4-(trifluoromethyl)phenyl]cyclobutyl}methanol] | 13% | 6.30 to 7.30 | 12% | – | – | – | –
2 | OC(c1ccccn1)C1(c2ccc(C(F)(F)F)nc2)CCC1 (stereo not drawn) [Example 85, pyridin-2-yl{1-[6-(trifluoromethyl)pyridin-3-yl]cyclobutyl}methanol] | 76% | 4.70 to 5.29 | 82% | – | – | – | –
3 | O=C1CC(c2ccc(C(F)(F)F)cc2)(C(O)c2ccccn2)C1 (stereo not drawn) [Example 160, 3-[hydroxy(pyridin-2-yl)methyl]-3-[4-(trifluoromethyl)phenyl]cyclobutanone] | 60% | 4.70 to 5.29 | >85% | – | – | – | –
4 | O[C@H](c1ccccn1)[C@]1(c2cccc(C(F)(F)F)c2)C[C@@H](O)C1 (relative stereo) [Example 264, trans-3-[(S)-hydroxy(pyridin-2-yl)methyl]-3-[3-(trifluoromethyl)phenyl]-cyclobutanol] | – | 6.30 to 7.30 | – | 59% | 56% | – | –
5 | OC(c1ccccn1)C1(c2ccc(Cl)c(Cl)c2)CCCO1 (stereo not drawn) [Example 98] | 0.020% | 6.30 to 7.30 | 7.6% | – | – | – | –
6 | N[C@@H]1CCC[C@H]1[C@@H](O)C1(c2ccc(OC(F)(F)F)cc2)CCC1 [Example 223, (R)-[(1R,2R)-2-aminocyclopentyl]{1-[4-(trifluoromethoxy)phenyl]-cyclobutyl}methanol] | 65% | 5.30 to 5.96 | >85% | – | – | – | –
7 | OC(C1CCCc2cccnc21)C1(c2ccc(F)c(F)c2)CCC1 (stereo not drawn) [Example 169, (anti)-[1-(3,4-difluorophenyl)cyclobutyl][5,6,7,8-tetrahydroquinolin-8-yl]-methanol] | <0.01% | 4.70 to 5.29 | <0.01% | – | – | – | –
8 | OC(c1ccccn1)C1(c2ccc(F)c(F)c2)CCCO1 (stereo not drawn) [Example 108, (anti)-[2-(3,4-difluorophenyl)tetrahydrofuran-2-yl](pyridin-2-yl)methanol] | 4.9% | 6.00 to 6.30 | 13% | – | – | – | –
9 | OC(c1ccccn1)C1(c2ccccc2OC(F)(F)F)CCCO1 (stereo not drawn) [Example 97, (syn)-pyridin-2-yl{2-[2-(trifluoromethoxy)phenyl]tetrahydrofuran-2-yl}-methanol] | 0.16% | 6.30 to 7.30 | 6.4% | – | – | – | –
10 | COC1CC(c2ccc(Cl)c(Cl)c2)(C(O)c2ccccn2)C1 [Example 150, (S)-[cis-1-(3,4-dichlorophenyl)-3-methoxycyclobutyl](pyridin-2-yl)methanol] | <0.01% | 5.30 to 5.96 | 42% | – | – | – | –
11 | OC(C1CCCc2cccnc21)C1(c2cccc(C(F)(F)F)c2)CCC1 (stereo not drawn) [Example 179, (anti)-5,6,7,8-tetrahydroquinolin-8-yl{1-[3-(trifluoromethyl)phenyl]-cyclobutyl}methanol] | <0.01% | 5.30 to 5.96 | <0.01% | – | – | – | –
12 | OC(c1ccccn1)C1(c2ccccc2F)CCCO1 (stereo not drawn) [Example 103, (syn)-[2-(2-fluorophenyl)tetrahydrofuran-2-yl](pyridin-2-yl)methanol] | 0.012% | 5.30 to 5.96 | 73% | – | – | – | –
13 | O=C1CC(c2cc(C(F)(F)F)ccn2)([C@H](O)c2ccccn2)C1 [Example 277, 3-[(S)-hydroxy(pyridin-2-yl)methyl]-3-[4-(trifluoromethyl)pyridin-2-yl]-cyclobutanone] | >85% | 5.30 to 5.96 | >85% | – | – | – | –
14 | O[C@@H](c1ccccn1)C1(c2ccc(OC(F)(F)F)cc2)CC(F)(F)C1 [Example 159, (R)-{3,3-difluoro-1-[4-(trifluoromethoxy)phenyl]cyclobutyl}(pyridin-2-yl)methanol] | 65% | 5.30 to 5.96 | 45% | – | – | – | –
15 | ON=C1CC(c2ccc(OC(F)(F)F)cc2)([C@H](O)c2ccccn2)C1 (stereo partly drawn) [Example 248, (S)-{3-(hydroxyimino)-1-[4-(trifluoromethoxy)phenyl]cyclobutyl}(pyridin-2-yl)methanol] | 29% | 5.30 to 5.96 | 70% | – | – | – | –
16 | OC(c1ccccn1)C1(c2cccc(OC(F)(F)F)c2)CCCO1 (stereo not drawn) [Example 93, (syn)-pyridin-2-yl{2-[3-(trifluoromethoxy)phenyl]tetrahydrofuran-2-yl}-methanol] | 0.33% | 6.00 to 6.30 | 12% | – | – | – | –
17 | OC(c1ccccn1)C1(c2ccc(OC(F)(F)F)cc2)CCC1 (stereo not drawn) [Example 12, pyridin-2-yl{1-[4-(trifluoromethoxy)phenyl]cyclobutyl}methanol] | 11% | 6.30 to 7.30 | 24% | – | – | – | –
18 | CC1(O)CC(c2ccc(OC(F)(F)F)cc2)(C(O)c2ccccn2)C1 (single isomer, unassigned) [Example 134] | 72% | 6.00 to 6.30 | 78% | – | – | – | –
19 | OC(CC1(c2cccc(OC(F)(F)F)c2)CCC1)c1ccccn1 (stereo not drawn) [Example 77, 1-(pyridin-2-yl)-2-{1-[3-(trifluoromethoxy)phenyl]cyclobutyl}ethanol] | 0.94% | 6.00 to 6.30 | 11% | – | – | – | –
20 | OC1CC(c2ccnc(C(F)(F)F)c2)(C(O)c2ccccn2)C1 [Example 306, trans-3-[(S)-hydroxy(pyridin-2-yl)methyl]-3-[2-(trifluoromethyl)pyridin-4-yl]cyclobutanol] | >85% | 6.30 to 7.30 | >85% | – | – | – | –
21 | CN1CCC(c2ccccc2OC(F)(F)F)(C(O)c2ccccn2)CC1 (stereo not drawn) [Example 149, {1-methyl-4-[2-(trifluoromethoxy)phenyl]piperidin-4-yl}(pyridin-2-yl)-methanol] | – | 4.70 to 5.29 | – | – | – | 62% | >85%
22 | CC1(O)CC(c2ccc(OC(F)(F)F)cc2)(C(O)c2ccccn2)C1 [Example 203, trans-3-[(S)-hydroxy(pyridin-2-yl)methyl]-1-methyl-3-[4-(trifluoromethoxy)-phenyl]cyclobutanol] | 74% | 4.70 to 5.29 | >85% | – | – | – | –
23 | OC1CC(c2ccc(F)c(Cl)c2)([C@H](O)c2ccccn2)C1 (stereo partly drawn) [Example 276, 3-(3-chloro-4-fluorophenyl)-3-[(S)-hydroxy(pyridin-2-yl)methyl]-cyclobutanol] | 73% | 6.30 to 7.30 | 72% | – | – | – | –
